Data reported in paper PMC7345905, “Microbial Metabolite Urolithin B Inhibits Recombinant Human Monoamine Oxidase A Enzyme” (Metabolites, 2020).
Values joined by “and” are separate entries in the source; they are usually repeats but may differ in a detail not shown here. Equal values may be shown once.

Columns and labels:
human recombinant MAO-A [1] = target: T1, human recombinant MAO-A (Homo sapiens, UniProt P21397); assay: MAO-A inhibition kinetics (variable substrate, Lineweaver–Burk plot); assay type: biochemical; design: Michaelis-Menten best-fit Vmax of MAO-A / Michaelis-Menten best-fit Vmax of MAO-A, Average: unit not given here; conditions: for MAO-A assay signal (luminescence) / Transformed (reciprocal of MAO-A assay signal) / Michaelis-Menten best-fit Vmax of MAO-A: N=1-3
T1 construct: purchased Sigma-Aldrich
T1 sequence (P21397 1-527): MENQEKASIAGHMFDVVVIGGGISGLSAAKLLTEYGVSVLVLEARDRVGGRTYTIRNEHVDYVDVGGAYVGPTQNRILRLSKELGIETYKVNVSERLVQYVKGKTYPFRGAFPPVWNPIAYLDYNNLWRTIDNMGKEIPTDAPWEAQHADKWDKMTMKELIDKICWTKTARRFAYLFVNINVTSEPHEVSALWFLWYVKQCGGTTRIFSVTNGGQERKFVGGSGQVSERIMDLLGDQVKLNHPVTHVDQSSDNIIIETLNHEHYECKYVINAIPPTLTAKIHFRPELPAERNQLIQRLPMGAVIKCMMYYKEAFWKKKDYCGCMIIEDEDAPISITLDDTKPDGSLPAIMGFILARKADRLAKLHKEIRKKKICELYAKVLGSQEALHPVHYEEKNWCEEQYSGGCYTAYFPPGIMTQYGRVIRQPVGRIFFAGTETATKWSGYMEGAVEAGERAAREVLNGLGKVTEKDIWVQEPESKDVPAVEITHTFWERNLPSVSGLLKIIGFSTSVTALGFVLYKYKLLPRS
Method: (§1) MAO inhibition assays were performed using a MAO-Glo™ Assay kit (Promega) according to the manufacturer’s instructions. Briefly, 1 µg of human recombinant MAO-A and MAO-B enzyme isoforms were incubated with 160 and 16 µM of MAO substrates, respectively. […] The enzyme reaction was quenched by the addition of a luciferin detection reagent. […] An equal volume of dimethyl sulfoxide (0.1%) was added to the enzyme assay as a control. After 1 h of incubation, the luminescence was measured with a multimode microplate reader (Synergy HT, BioTek, Winooski, VT, USA) to determine the MAO enzyme activities. Initially, the inhibition potential of all the test compounds was evaluated at a concentration of 100 μM. The control reaction (with no inhibitor) with vehicle (DMSO 0.1%) was set at 100% activity. To determine IC50 of the test compounds, the dose dependent enzyme assays were performed. We used range of 0.1 to 50 μM concentrations for MAO-A and 0.1 to 200 μM concentrations of test compounds for the MAO-B enzyme activities. The type of enzyme inhibition was determined using variable concentrations of MAO-A substrate (10–360 µM) and MAO-B substrate (2–64 µM) for the respective enzyme assay. […] A Lineweaver–Burk double reciprocal plot was generated, and the mode of inhibition was determined by visual examination of the plot. The slope of the reciprocal plots was plotted against the inhibitor concentrations and determined the x-axis intercept that represented the inhibitor constant, Ki value.
All experiments were performed in triplicates and data are presented as mean ± standard error of the mean (SEM). The raw data are provided in Supplementary Data, Table S1. Enzyme kinetic data were analyzed using the Lineweaver–Burk plot. Statistical analysis was performed by Student’s t-test using GraphPad Prism Ver. 7.0 (GraphPad Prism Software Inc., San Diego, CA, USA).

human recombinant MAO-A [2] = target: T1, human recombinant MAO-A; assay: MAO-Glo MAO-A inhibition assay; assay type: biochemical; conditions: for MAO-A enzyme assay, Percent of control: N=1-3, listed as UroA
Method: as §1

[3] = UroA 3 µM, MAO-A substrate 10 uM
[4] = UroA 3 µM, MAO-A substrate 20 uM
[5] = UroA 3 µM, MAO-A substrate 40 uM
[6] = UroA 3 µM, MAO-A substrate 80 uM
[7] = UroA 3 µM, MAO-A substrate 160 uM
[8] = UroA 3 µM, MAO-A substrate 320 uM
[9] = UroA 12 µM, MAO-A substrate 10 uM
[10] = UroA 12 µM, MAO-A substrate 20 uM
[11] = UroA 12 µM, MAO-A substrate 40 uM
[12] = UroA 12 µM, MAO-A substrate 80 uM
[13] = UroA 12 µM, MAO-A substrate 160 uM

In the case of `O=c1oc2cc(O)ccc2c2ccc(O)cc12` [UA, urolithin-A], the “mode of inhibition of MAO-A” value (human recombinant MAO-A [1]; Lineweaver–Burk plot) is reported as “mixed mode of inhibition”, the “MAO-A assay signal (luminescence), Average” value (human recombinant MAO-A [1]; [3]) is reported as 962.333 and the “MAO-A assay signal (luminescence)” value (human recombinant MAO-A [1]; [3]) is reported as 1018 and 920 and 949. For the same molecule, the “MAO-A assay signal (luminescence), Average” value (human recombinant MAO-A [1]; [4]) was 1760.33, the “MAO-A assay signal (luminescence)” value (human recombinant MAO-A [1]; [4]) was 1739 and 1707 and 1835 and the “MAO-A assay signal (luminescence), Average” value (human recombinant MAO-A [1]; [5]) was 3218.67. For the same molecule, the “MAO-A assay signal (luminescence)” value (human recombinant MAO-A [1]; [5]) was 3261 and 3188 and 3207, the “MAO-A assay signal (luminescence), Average” value (human recombinant MAO-A [1]; [6]) was 6181.33 and the “MAO-A assay signal (luminescence)” value (human recombinant MAO-A [1]; [6]) was 6231 and 6107 and 6206. The “MAO-A assay signal (luminescence), Average” value (human recombinant MAO-A [1]; [7]) was 11480.7, the “MAO-A assay signal (luminescence)” value (human recombinant MAO-A [1]; [7]) was 11583 and 11575 and 11284 and the “MAO-A assay signal (luminescence), Average” value (human recombinant MAO-A [1]; [8]) was 20098. The “MAO-A assay signal (luminescence)” value (human recombinant MAO-A [1]; [8]) was 20331 and 20247 and 19716, the “Transformed (reciprocal of MAO-A assay signal), Average” value (“Transformed … Average” for short) (human recombinant MAO-A [1]; UroA 3 µM, [1/S] 0.003125) was 4.976e-5 and the “Transformed (reciprocal of MAO-A assay signal)” value (human recombinant MAO-A [1]; UroA 3 µM, [1/S] 0.003125) was 4.9186e-5 and 4.939e-5 and 5.072e-5. The “Transformed … Average” value (human recombinant MAO-A [1]; UroA 3 µM, [1/S] 0.00625) was 8.7103e-5, the “Transformed (reciprocal of MAO-A assay signal)” value (human recombinant MAO-A [1]; UroA 3 µM, [1/S] 0.00625) was 8.633e-5 and 8.639e-5 and 8.862e-5 and the “Transformed … Average” value (human recombinant MAO-A [1]; UroA 3 µM, [1/S] 0.0125) was 0.0001618. For the same molecule, the “Transformed (reciprocal of MAO-A assay signal)” value (human recombinant MAO-A [1]; UroA 3 µM, [1/S] 0.0125) was 0.0001605 and 0.0001637 and 0.0001611, the “Transformed … Average” value (human recombinant MAO-A [1]; UroA 3 µM, [1/S] 0.025) was 0.0003107 and the “Transformed (reciprocal of MAO-A assay signal)” value (human recombinant MAO-A [1]; UroA 3 µM, [1/S] 0.025) was 0.0003067 and 0.0003137 and 0.0003118. The “Transformed … Average” value (human recombinant MAO-A [1]; UroA 3 µM, [1/S] 0.05) was 0.0005681, the “Transformed (reciprocal of MAO-A assay signal)” value (human recombinant MAO-A [1]; UroA 3 µM, [1/S] 0.05) was 0.000575 and 0.0005858 and 0.000545 and the “Transformed … Average” value (human recombinant MAO-A [1]; UroA 3 µM, [1/S] 0.1) was 0.001039. The “Transformed (reciprocal of MAO-A assay signal)” value (human recombinant MAO-A [1]; UroA 3 µM, [1/S] 0.1) was 0.0009823 and 0.001087 and 0.001054, the “MAO-A assay signal (luminescence), Average” value (human recombinant MAO-A [1]; [9]) was 978.667 and the “MAO-A assay signal (luminescence)” value (human recombinant MAO-A [1]; [9]) was 993 and 1030 and 913. The “MAO-A assay signal (luminescence), Average” value (human recombinant MAO-A [1]; [10]) was 1695.33, the “MAO-A assay signal (luminescence)” value (human recombinant MAO-A [1]; [10]) was 1731 and 1673 and 1682 and the “MAO-A assay signal (luminescence), Average” value (human recombinant MAO-A [1]; [11]) was 3058.33. The “MAO-A assay signal (luminescence)” value (human recombinant MAO-A [1]; [11]) was 3191 and 2983 and 3001, the “MAO-A assay signal (luminescence), Average” value (human recombinant MAO-A [1]; [12]) was 5849.33 and the “MAO-A assay signal (luminescence)” value (human recombinant MAO-A [1]; [12]) was 5814 and 5864 and 5870. For the same molecule, the “MAO-A assay signal (luminescence), Average” value (human recombinant MAO-A [1]; [13]) was 10871, the “MAO-A assay signal (luminescence)” value (human recombinant MAO-A [1]; [13]) was 10945 and 10745 and 10923 and the “MAO-A assay signal (luminescence), Average” value (human recombinant MAO-A [1]; UroA 12 µM, MAO-A substrate 320 uM) was 12941.7. For the same molecule, the “Transformed … Average” value (human recombinant MAO-A [1]; UroA 12 µM, [1/S] 0.003125) was 7.727e-5, the “Transformed (reciprocal of MAO-A assay signal)” value (human recombinant MAO-A [1]; UroA 12 µM, [1/S] 0.003125) was 8.026e-5 and 7.7238e-5 and 7.452e-5 and the “Transformed … Average” value (human recombinant MAO-A [1]; UroA 12 µM, [1/S] 0.00625) was 9.199e-5. For the same molecule, the “Transformed (reciprocal of MAO-A assay signal)” value (human recombinant MAO-A [1]; UroA 12 µM, [1/S] 0.00625) was 9.137e-5 and 9.307e-5 and 9.155e-5, the “Transformed … Average” value (human recombinant MAO-A [1]; UroA 12 µM, [1/S] 0.0125) was 0.000171 and the “Transformed (reciprocal of MAO-A assay signal)” value (human recombinant MAO-A [1]; UroA 12 µM, [1/S] 0.0125) was 0.000172 and 0.0001705 and 0.0001704. For the same molecule, the “Transformed … Average” value (human recombinant MAO-A [1]; UroA 12 µM, [1/S] 0.025) was 0.000327, the “Transformed (reciprocal of MAO-A assay signal)” value (human recombinant MAO-A [1]; UroA 12 µM, [1/S] 0.025) was 0.0003134 and 0.0003352 and 0.0003332 and the “Transformed … Average” value (human recombinant MAO-A [1]; UroA 12 µM, [1/S] 0.05) was 0.0005899. For the same molecule, the “Transformed (reciprocal of MAO-A assay signal)” value (human recombinant MAO-A [1]; UroA 12 µM, [1/S] 0.05) was 0.0005777 and 0.0005977 and 0.0005945, the “Transformed … Average” value (human recombinant MAO-A [1]; UroA 12 µM, [1/S] 0.1) was 0.001022 and the “Transformed (reciprocal of MAO-A assay signal)” value (human recombinant MAO-A [1]; UroA 12 µM, [1/S] 0.1) was 0.001007 and 0.0009709 and 0.001095. For the same molecule, the “Michaelis-Menten best-fit Vmax of MAO-A, Average” value (human recombinant MAO-A [1]; in presence of UroA 3 uM) was 79114.7, the “Michaelis-Menten best-fit Vmax of MAO-A” value (human recombinant MAO-A [1]; in presence of UroA 3 uM) was 80970 and 83529 and 72845 and the “Michaelis-Menten best-fit Vmax of MAO-A, Average” value (human recombinant MAO-A [1]; in presence of UroA 12 uM) was 65883.7. The “Michaelis-Menten best-fit Vmax of MAO-A” value (human recombinant MAO-A [1]; in presence of UroA 12 uM) was 75205 and 61786 and 60660, the Ki (human recombinant MAO-A [1]; x-axis intercept of slopes of Lineweaver–Burk plots vs inhibitor concentration) was 10 µM and the IC50 (human recombinant MAO-A [2]; 0–50 μM range, 160 µM substrate, 37 °C, 1 h, read-out: IC50 for MAO-A inhibitory activity) was 5.88 ± 0.69 µM. The “MAO-A enzyme assay, Percent of control” value (human recombinant MAO-A [2]; 0.1 µM) was 103.587% of control and 97.8592% of control and 101.542% of control, the “MAO-A enzyme assay, Percent of control” value (human recombinant MAO-A [2]; 0.5 µM) was 95.9845% of control and 94.0414% of control and 95.8492% of control and the “MAO-A enzyme assay, Percent of control” value (human recombinant MAO-A [2]; 1 µM) was 62.4789% of control and 79.8224% of control and 85.3157% of control. For the same molecule, the “MAO-A enzyme assay, Percent of control” value (human recombinant MAO-A [2]; 5 µM) was 59.251% of control and 60.0082% of control and 51.3175% of control, the “MAO-A enzyme assay, Percent of control” value (human recombinant MAO-A [2]; 10 µM) was 48.1185% of control and 46.1024% of control and 43.7898% of control and the “MAO-A enzyme assay, Percent of control” value (human recombinant MAO-A [2]; 25 µM) was 24.6659% of control and 27.2749% of control and 27.3403% of control. For the same molecule, the “MAO-A enzyme assay, Percent of control” value (human recombinant MAO-A [2]; 50 µM) was 13.9758% of control and 16.0253% of control and 16.3887% of control, the “MAO-A enzyme assay, Percent of control” value (human recombinant MAO-A [2]; 100 µM (Figure 1A), 100 µM) was 13.2811% of control and 14.5442% of control and 14.4558% of control and the “inhibition of MAO-A enzyme activity” value (human recombinant MAO-A [2]; 100 µM, compared to vehicle) was 86%.
